The source of these data is patent publication US5334595A, “Pyrazoloquinolones as anticancer agents” (priority 1992, dated 1994).

The target of one data set is T1, human topoisomerase II (Homo sapiens, UniProt P11388).
T1 construct: Topo II was purified from late log phase suspension cultures of HeLa WIS; endogenous in cells; host or cells: HeLa WIS
Kind of data set: Mammalian topoisomerase II inhibition assay (topo II covalently attached to DNA, relative to mAMSA). In kind it is biochemical. The note with it: conc. achieving 50% of maximal effect of mAMSA; topo II from HeLa cells; read-out: topo II inh. EC50. An excerpt: The inhibition of human topoisomerase II (hereafter topo II) was quantitated by a procedure adapted from that described by Trask et al., EMBO J., 3, 671-676 (1984). The assay quantitates the amount of topo II covalently attached to DNA at equilibrium during a topo II reaction. This assay determines the potential of a compound to stabilize this complex, which potential is closely related to the cytotoxicity of the compound.
Topo II was purified from late log phase suspension cultures of HeLa WIS by an adaptation of the method described by Per et al., Mol. Pharmacol., 32, 17-25 (1987).
Assays (in duplicate) were assembled at 4° C. Assay mix (25 μl) was distributed in Beckman (No. 265270) 1.5 mL microtiter tubes followed by the addition of 5 μl test compound to yield the final concentrations of assay components:
The assay mix including the test compound was incubated for 20 minutes at 37° C. The reaction was terminated at 37° C. by the addition of 3 μl 10% SDS followed by the addition of 266 μl 10 mM Tris-Cl pH 7.5, 20 μg/ml BSA, 20 μg/ml calf thymus DNA, 1% SDS.
A SDS/protein precipitate was formed by the addition of 28 μl 2.5M KCl followed by chilling on ice for a minimum of 10 minutes. The precipitate was collected and washed with a Brandell cell harvester on a GFB glass fiber filter membrane as follows. The contents of the assay tube were drawn up into the harvester. The tube was then rinsed 7× with 10 mM Tris-Cl pH 7.5, 1 mM EDTA and 100 mM KCl. The precipitate was washed with 1 L of a solution of 10 mM Tris-Cl pH 7.5, 1 mMEDTA, 100 mM KCl followed by 1 L of 95% ethyl alcohol and finally 0.5 L 70% of ethyl alcohol (per 48 samples in each case). After drying, CPM was determined by liquid scintillation counting with 5 ml Biofluor (NEN Research Products) or Readisafe (Beckman Instruments Inc.) cocktail.
Preparation of test compound--A stock solution (6 mg/ml) of test compound was prepared either in 0.1N sodium hydroxide or 0.2N hydrogen chloride. This solution then was diluted 1/5 into water and serially thereafter in either 0.02N sodium hydroxide or 0.04N hydrogen chloride, respectively. The stock solution and serial dilution of the test compound was stored at -20° C. prior to testing.
Screening of test compound--As an initial screen, the test compound was tested at a final concentration of 2, 20 and 200 μg/ml. The compound was then retested at a range of concentrations (usually 2-3×steps) bridging their approximate EC50 's, as estimated by the prescreen.
Controls--A solvent control which indicates the base level of topo II-DNA complex formed in the absence of the test compound was included in each test. A control, in which topo II was omitted, was included for each test compound at the highest drug concentration tested.
Reference Agent--A dose response curve with mAMSA at 0.01, 0.08, 0.16, 0.32, 1.0 and 10 μg/ml was included in each test.
The maximal DNA-topo II complex formed is taken as that equal to that formed at the nearly saturating dose of mAMSA (10 μg/ml).

Data set [1] concerns P388 murine leukemia cells. Put plainly: In vitro cytotoxicity, one-hour exposure, clonogenic survival of P388 cells. In kind it is cell-based. The note with it: Mus musculus, read-out: in vitro cytotoxicity IC50, 1 hr exp.; P388, 1 hr exposure. As for the experimental part:
(§1) In vitro cytotoxicity was assayed by determining cell survival following exposure of P388 murine leukemia cells to a range of test compound concentrations. Cytotoxicity was quantitated following either a one-hour exposure or continuous exposure of P388 cells to test compound.
(§2) A Manual of Basic Technique. […] Briefly, following drug exposure cells were plated in soft agar and incubated (37°, 5% CO2) for 7-10 days during which time viable cells form visible colonies. Cytotoxicity following continuous exposure of cells to test compound was assayed by quantitating total P388 cells on a Coultier Counter following a 48-hour co-incubation of test compound with cells. P388 cells were maintained in log phase throughout the duration of cytotoxicity assays.
(§3) The percentage of cells surviving relative to an untreated control was graphed as a function of increasing drug concentration.

A short description of data set [2]: In vivo antitumor assay, Panc03(sc). Further details: species or system mice. The note with it: mouse, in vivo, MTD. The source says: Mice: Inbred: C3H/He and NCR-nu; and Hybrids: B6D2F1 (C57BL/6 females×DBA/2 males, CD2F1 (Balb/c females×DBS/2 males) and B6C3fl (C57BL/6×C3H) were bred at Wayne State University from strains obtained from the Frederick Cancer Research Facility, Frederick, Maryland or purchased from commercial suppliers.
Tumors: Murine Tumor: P388 and an adriamycin-resistant (ADR) subline P388/ADR leukemia and the following transplantable solid tumors of mice were used for in vivo testing: B16 melanoma (B16), pancreatic ductal adenocarcinoma No. 03 (Pane 03), colon adenocarcinoma No. 38 (colo 38), lung carcinoma No. 12 (LC 12), mammary ductal adenocarcinoma No. 16/C (Mam16C) and an adriamycin-resistant subline Mam16C/ADR. Human tumor: A single human tumor, mammary carcinoma MX-1 was used for in vivo testing. All tumors are in the Developmental Therapeutics Program frozen tumor respository, maintained by the Biological Testing Branch, Frederick Maryland. Each has a detailed description, code identification number, and list of references at the National Tumor Repository. Murine tumors were maintained in the mouse strain of origin and were transplanted in the appropriate F1 hydrid (or the strain of origin) for therapy trials. Human mammary carcinoma MX-1 (MX1) was maintained as a subcutaneous implant in either athymic Swiss (Cr: NIH(S)-nu) or athymic random bred (NCR-nu) mice and transplanted in NCR-nu for therapy trials.
Chemotherapy: For pancreatic ductal adenocarcinoma No. 3, colon adenocarcinoma No. 38 (colo 38), lung carcinoma No. 12 LC 12) and both adriamycin-sensitive (RP) and-resistant (ADR) mammary ductal adenocarcinoma No. 16 (Mam16) tumors, bilateral tumor implants were used to help ensure a more uniform tumor burden per mouse (thus reducing the requirement for greater numbers of mice per group). The animals necessary to begin an experiment were pooled, implanted bilaterally s.c. on day zero with 30-60 mg tumor fragments using a 12-gauge trocar, and again pooled before randomization to the various treatment and control groups. Chemotherapy was started within three days after tumor implantation while the number of cells per mouse was relatively small (1×10^7 -1×10^8 cells).
Quantitative end points used to assess antitumor activity included % Increased Life Span (% ILS), Tumor Cell Kill (Log10 kill), and Tumor Growth Inhibition (T/C). Long Term Survivors (45 or 60 day) were excluded from calculations of %ILS and Tumor Cell Kill.
The log10 cell kill was calculated from the following formula: [formula] where T-C is the tumor difference in the median day of death between the treated (T) and the control (C) groups and Td is the tumor doubling time (in days), the latter estimated from the best fit straight line from a log-linear growth plot of the control-group tumors in exponential growth. The conversion of the T-C values to log10 cell kill is possible because the Td for tumors regrowing post-treatment approximated the Td values of the tumors in untreated control mice.
Tumors were measured with a caliper once or twice weekly (as needed) until either tumors exceeded 1600 mg or cure was assured. Tumor weights were estimated from two-dimensional measurements: Tumor Weight (mg)=(a×b^2) / 2, where a and b are the tumor length and width (ram) respectively. Measurements were carried out simultaneously in both treatment and control groups. When the control group tumors reached approximately 750-1500 mg in size (median of group), the median tumor weight of each group was determined (including zeros). The T/C value in percent is an indication of antitumor effectiveness. The % T/C was calculated from the following formula for solid murine tumor models: [formula] where T and C are median tumor weights of the treatment and control groups, respectively. A T/C equal to or less than 42% is considered significant antitumor activity. […]

For data set [3], the system named is P388 murine leukemia cells. Put plainly: In vitro cytotoxicity, continuous (48-hour) exposure of P388 cells. In kind it is cell-based. The note with it: Mus musculus; P388, continuous exposure (48-hour); read-out: in vitro cytotoxicity IC50, cont. exp. The procedure:
as §1, §2, §3

T1 sequence (P11388 whole entry): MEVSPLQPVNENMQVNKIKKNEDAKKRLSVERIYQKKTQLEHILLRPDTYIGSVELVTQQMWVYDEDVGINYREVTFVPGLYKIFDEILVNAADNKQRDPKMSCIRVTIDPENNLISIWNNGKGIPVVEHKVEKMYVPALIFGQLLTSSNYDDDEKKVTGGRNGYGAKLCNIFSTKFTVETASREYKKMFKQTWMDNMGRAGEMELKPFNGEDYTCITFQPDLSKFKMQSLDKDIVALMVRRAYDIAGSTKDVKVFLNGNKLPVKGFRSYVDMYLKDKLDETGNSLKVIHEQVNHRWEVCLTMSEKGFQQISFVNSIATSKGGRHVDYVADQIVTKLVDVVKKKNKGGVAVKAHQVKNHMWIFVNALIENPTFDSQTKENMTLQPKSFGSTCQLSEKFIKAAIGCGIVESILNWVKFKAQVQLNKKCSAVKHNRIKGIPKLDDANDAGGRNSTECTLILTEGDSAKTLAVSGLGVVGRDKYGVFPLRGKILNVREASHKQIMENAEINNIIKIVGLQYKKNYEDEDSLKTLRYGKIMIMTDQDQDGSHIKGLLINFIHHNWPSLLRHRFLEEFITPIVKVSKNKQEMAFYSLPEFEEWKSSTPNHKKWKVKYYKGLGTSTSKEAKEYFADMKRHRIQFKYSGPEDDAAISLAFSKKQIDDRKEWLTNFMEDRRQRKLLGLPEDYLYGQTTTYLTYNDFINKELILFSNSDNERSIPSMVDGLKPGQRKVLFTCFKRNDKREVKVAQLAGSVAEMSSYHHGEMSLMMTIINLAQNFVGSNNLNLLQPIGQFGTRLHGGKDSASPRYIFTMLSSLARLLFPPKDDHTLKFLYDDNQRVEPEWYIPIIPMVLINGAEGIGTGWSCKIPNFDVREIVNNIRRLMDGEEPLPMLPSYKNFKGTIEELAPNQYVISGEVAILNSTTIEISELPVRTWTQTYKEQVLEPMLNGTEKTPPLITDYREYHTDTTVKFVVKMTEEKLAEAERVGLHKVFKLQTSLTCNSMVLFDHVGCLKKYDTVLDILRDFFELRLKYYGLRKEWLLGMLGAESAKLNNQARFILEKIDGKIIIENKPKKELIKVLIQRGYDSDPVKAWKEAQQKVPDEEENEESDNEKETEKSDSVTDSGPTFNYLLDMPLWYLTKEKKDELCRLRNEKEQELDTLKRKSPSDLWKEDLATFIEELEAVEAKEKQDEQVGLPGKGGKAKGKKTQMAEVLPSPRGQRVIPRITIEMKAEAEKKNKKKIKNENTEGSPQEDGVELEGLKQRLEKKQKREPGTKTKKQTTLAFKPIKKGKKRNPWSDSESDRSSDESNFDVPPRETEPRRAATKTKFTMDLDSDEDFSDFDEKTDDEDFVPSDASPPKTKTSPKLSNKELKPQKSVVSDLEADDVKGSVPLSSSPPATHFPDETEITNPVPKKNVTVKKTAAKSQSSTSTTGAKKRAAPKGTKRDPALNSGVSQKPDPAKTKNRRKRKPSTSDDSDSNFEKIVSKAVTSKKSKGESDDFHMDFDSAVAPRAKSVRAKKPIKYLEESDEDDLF

Regarding `Cc1cc(-c2c(F)cc3c4n[nH]c(=O)c-4cn(C4CC4)c3c2F)cc(C)n1` [Example 6], the half-maximal effective concentration (EC50) at human topoisomerase II came to 11 µM. The concentration for half-maximal inhibition (IC50) in data set [1] was found to be 7900 nM; in data set [3] it was 3600 nM. Also, the MTD in data set [2] (sc) is over 2500 mg/kg.

Regarding `Cc1cc(-c2c(F)cc3c4nn(CCC5CCCN5C)c(=O)c-4cn(C4CC4)c3c2F)cc(C)n1` (centres unmarked) [Example 21], the EC50 on human topoisomerase II came out at 3.5 µM. For the same compound, the figures for the concentration for half-maximal inhibition (IC50) in data set [1] and in data set [3] were 330 nM and 160 nM, respectively. The MTD in data set [2] (iv) was 80 mg/kg.

Take `Cc1cc(-c2c(F)cc3c4nn([C@H]5CC[C@H](N)CC5)c(=O)c-4cn(C4CC4)c3c2F)cc(C)n1` [Example 56b, 2-(trans-4-aminocyclohexyl)-5-cyclopropyl-6,8-difluoro-2,5 dihydro-7-(2,6-dimethyl-4-pyridinyl)-3H-pyrazolo[4,3-c]quinolin-3-one]: the 50% effective concentration (EC50) at human topoisomerase II stood at 4.2 µM. The half-maximal inhibitory concentration (IC50) in data set [1] was found to be 1500 nM. In addition, the MTD in data set [2] came to 550 mg/kg.

By EC50 is commonly meant the concentration at which the effect is half-maximal. The term IC50 denotes the concentration that inhibits the measured activity by half.
